Experimental data: patent US20060247223A1, “Non-imidazole alkylamines as histamine H3- receptor ligands and their therapeutic applications” (priority 1998, published 2006)
Where a name gives a salt, the structure may show the parent alone.

biological target: T1, H3 receptor (Rattus norvegicus, UniProt Q9QYN8); assay: release of neosynthesized tritiated histamine from rat cerebral cortex synaptosomes; assay type: biochemical; details: H3 receptor, rat cerebral cortex synaptosomes, reversal of (R)α-methylhistamine inhibition of tritiated histamine release; read-out: Ki
T1 construct: release of neosynthesized tritiated histamine from rat cerebral cortex synaptosomes; from tissue; host or cells: rat cerebral cortex synaptosomes
T1 sequence (Q9QYN8 whole entry): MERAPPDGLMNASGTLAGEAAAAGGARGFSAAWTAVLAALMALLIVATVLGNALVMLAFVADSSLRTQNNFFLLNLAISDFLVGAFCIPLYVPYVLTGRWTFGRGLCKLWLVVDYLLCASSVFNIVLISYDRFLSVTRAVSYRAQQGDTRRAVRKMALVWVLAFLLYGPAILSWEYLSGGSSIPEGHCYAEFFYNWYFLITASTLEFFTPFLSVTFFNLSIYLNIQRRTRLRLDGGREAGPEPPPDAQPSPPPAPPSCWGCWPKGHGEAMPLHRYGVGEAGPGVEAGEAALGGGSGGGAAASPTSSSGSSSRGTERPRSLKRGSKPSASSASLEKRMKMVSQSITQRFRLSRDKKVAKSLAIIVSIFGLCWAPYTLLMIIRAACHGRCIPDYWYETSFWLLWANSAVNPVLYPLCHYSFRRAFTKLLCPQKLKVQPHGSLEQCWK

| Ki | SMILES |
| --- | --- |
| 39 ± 11 nM | O=[N+]([O-])c1ccc(OCCCCCN2CCCC2)cc1 [Example 18, 1-[5-(4-nitrophenoxy)-pentyl]-pyrrolidine] |

biological target: T2, H3 receptor (Mus musculus, UniProt P58406); assay: tele-methylhistamine level variations in the brain of mice after p.o. administration; assay type: in vivo; details: mouse, po, brain tele-methylhistamine level, dose responsible for an half maximal effect
T2 construct: estimated in vivo by the measurement of the tele-methylhistamine level variations in the brain of mice; from tissue; host or cells: mouse brain, in vivo after p.o. administration
Excerpt: At various time after p.o. administration of the. compounds, the effect of agonists and antagonists are evidenced by the decrease and increase respectively in telemethylhistamine level induced.
The changes are compared to those induced by reference compounds given in high dosage and this allows the calculation of the ED50 value for each compound which correspond to the dose responsible for an half maximal effect.

T2 sequence (P58406 whole entry): as the sequence (Q9QYN8 whole entry) above, with T15A, A286T, A290G, R387H, I389V counted along it

| ED50 | SMILES |
| --- | --- |
| 0.17 mg/kg | C[C@H]1C[C@H](C)CN(CCCOc2ccc(C(=O)C3CC3)cc2)C1 (relative stereo) [Example 101, 1-[3-(4-cyclopropanecarbonylphenoxy)propyl]-trans-3,5 dimethylpiperidine] |
| 0.21 mg/kg | CCCC(=O)c1ccc(OCCCN2CCCCC2)cc1 [Example 74, 1-[3-(4-buyrylphenoxy)propyl]piperidine] |
| 0.18 mg/kg | O=C(c1ccc(OCCCN2CCCCC2)cc1)C1CC1 [Example 76, 1-[3-(4-cyclopropanecarbonylphenoxy)propyl]piperidine] |
| 0.14 mg/kg | CCC(=O)c1ccc(OCCCN2CCCC(C)C2)cc1 (stereo not shown) [Example 88, 1-[3-(4-propionylphenoxy)propyl]-3-methylpiperidine] |

same assay, conditions: tele-methylhistamine level in brain, dose for half maximal effect

| ED50 (mg/kg/p.o.) | SMILES |
| --- | --- |
| 1.1 mg/kg/p.o. | O=[N+]([O-])c1ccc(OCCCCCN2CCCC2)cc1 [Example 18, 1-[5-(4-nitrophenoxy)-pentyl]-pyrrolidine] |

tested on: not given; assay: not given; details: not given

| melting point | SMILES |
| --- | --- |
| 110 to 112 °C | CCN(CC)CCCCCCOc1ccc(C#N)cc1 (as salt: oxalate) [Example 61, N-[6-(4-cyanophenoxy)-hexyl]-diethylamine] |
| 127 to 128 °C | CCCN(CCC)CCCOc1ccc(C#N)cc1 (as salt: oxalate) [Example 62, N-[3-(4-cyanophenoxy)-propyl]-dipropylamine] |
| 99 to 100 °C | CCN(CC)CCCOc1ccc(/C(C)=N/O)cc1 (as salt: oxalate) [Example 64, 4-(3-diethylaminopropoxy)-acetophenone-oxime] |
| 159 to 160 °C | CC(=O)c1ccc(OCCCN2CCCCC2)cc1 (as salt: oxalate) [Example 65, 1-[3-(4-acetylphenoxy)-propyl]-piperidine] |
| 143 to 144 °C | CC(=O)c1ccc(OCCCN2CCCC(C)C2)cc1 (stereo not shown) (as salt: oxalate) [Example 66, 1-[3-(4-acetylphenoxy)-propyl]-3-methyl-piperidine] |
| 160 to 161 °C | CC(=O)c1ccc(OCCCN2CCC(C)CC2)cc1 (as salt: oxalate) [Example 68, 1-[3-(4-acetylphenoxy)-propyl]-4-methyl-piperidine] |
| 174 to 175 °C | CC(=O)c1ccc(OCCCN2C[C@H](C)C[C@H](C)C2)cc1 (as salt: oxalate) [Example 70, 1-[3-(4-acetylphenoxy)-propyl]-3,5-cis-dimethyl-piperidine] |
| 152 to 153 °C | O=Cc1ccc(OCCCN2CCCCC2)cc1 (as salt: oxalate) [Example 71, 1-[3-(4-formylphenoxy)-propyl]-piperidine] |
| 121 to 122 °C | CC(C)C(=O)c1ccc(OCCCN2CCCCC2)cc1 (as salt: oxalate) [Example 72, 1-[3-(4-isobutyrylphenoxy)-propyl]-piperidine] |
| 138 to 139 °C | CCCC(=O)c1ccc(OCCCN2CCCCC2)cc1 (as salt: oxalate) [Example 74, 1-[3-(4-buyrylphenoxy)propyl]piperidine] |
| 143 to 144 °C | CC(=O)c1ccc(OCCCN2CC=CCC2)cc1 (as salt: oxalate) [Example 75, 1-[3-(4-acetylphenoxy)-propyl]-1,2,3,6-tetrahydropyridine] |
| 149 to 151 °C | CC(=O)c1ccc(OC[C@H](C)CN2CCCCC2)cc1 (as salt: oxalate) [Example 77, 1-[3-(4-acetylphenoxy)-2-R-methylpropyl]piperidine] |
| 148 to 150 °C | CC(=O)c1ccc(OCC(C)CN2CCCCC2)cc1 (stereo not shown) (as salt: oxalate) [Example 80, 1-[3-(4-acetylphenoxy)-2-S-methylpropyl]piperidine] |
| 172 to 174 °C | CC1CCCN(CCCOc2ccc([N+](=O)[O-])cc2)C1 (stereo not shown) (as salt: oxalate) [Example 83, 1-[3-(4-nitrophenoxy)propyl]-3-methylpiperidine] |
| 151 to 153 °C | CC1CCCCN1CCCOc1ccc([N+](=O)[O-])cc1 (stereo not shown) (as salt: oxalate) [Example 85, 1-[3-(4-nitrophenoxy)propyl]-2-methylpiperidine] |
| 119 to 121 °C | CC1CCN(CCCOc2ccc([N+](=O)[O-])cc2)CC1 (as salt: oxalate) [Example 86, 1-[3-(4-nitrophenoxy)propyl]4-methylpiperidine] |
| 135 to 136 °C | CCC(=O)c1ccc(OCCCN2CCCC(C)C2)cc1 (stereo not shown) (as salt: oxalate) [Example 88, 1-[3-(4-propionylphenoxy)propyl]-3-methylpiperidine] |
| 80 to 82 °C | O=C(c1ccc(OCCCN2CCCCC2)cc1)C1CCC1 (as salt: oxalate) [Example 89, 1-[3-(4-cyclobutylcarbonylphenoxy)propyl]piperidine] |
| 143 to 145 °C | O=C(c1ccc(OCCCN2CCCCC2)cc1)C1CCCC1 (as salt: oxalate) [Example 90, 1-[3-(4-cyclopentylcarbonylphenoxy)propyl]piperidine] |
| 161 to 163 °C | C[C@@H]1C[C@H](C)CN(CCCOc2ccc(C#N)cc2)C1 (as salt: oxalate) [Example 93, 1-[3-(4-cyanophenoxy)propyl]-cis-3,5-dimethylpiperidine] |

| melting point | SMILES |
| --- | --- |
| 163 to 165 °C | CCC(=O)c1ccc(OCCCN2CCC(C)CC2)cc1 (as salt: oxalate) [Example 94, 1-[3-(4-propionylphenoxy)propyl]-4-methylpiperidine] |
| 92 to 94 °C | CCC(=O)c1ccc(OCCCN2CCCCC2C)cc1 (stereo not shown) (as salt: oxalate) [Example 95, 1-[3-(4-propionylphenoxy)propyl]-2-methylpiperidine] |
| 182 to 183 °C | CCC(O)c1ccc(OCCCN2CCC(C)CC2)cc1 (stereo not shown) (as salt: oxalate) [Example 97, 1-{3-[4-(1-hydroxypropyl)phenoxy]propyl}-4-methylpiperidine] |
| 179 to 181 °C | CCC(=NOC)c1ccc(OCCCN2CCC(C)CC2)cc1 (as salt: oxalate) [Example 99, 1-[3-(4-propionylphenoxy)propyl]-4-methylpiperidine methoxime] |
| 130 to 132 °C | C[C@@H]1C[C@H](C)CN(CCCOc2ccc(C(=O)C3CC3)cc2)C1 (as salt: oxalate) [Example 102, 1-[3-(4-cyclopropylcarbonylphenoxy)propyl]-cis-3,5-dimethylpiperidine] |
| 156 to 158 °C | COC(=O)c1ccc(OCCCN2CCCCC2)cc1 (as salt: oxalate) [Example 103, 1-[3-(4-carbomethoxyphenoxy)propyl]piperidine] |
| 157 to 160 °C | CCC(=NO)c1ccc(OCCCN2CCC(C)CC2)cc1 (as salt: oxalate) [Example 107] |
| 175 to 177 °C | Brc1ccc(OCCCN2CCCCC2)cc1 (as salt: oxalate) [Example 108, 1-[3-(4-bromophenoxy)propyl]piperidine] |
| 148 to 151 °C | O=[N+]([O-])c1ccc(OCCCN2CCCCC2)cc1 (as salt: oxalate) [Example 109, 1-[3-(4-nitrophenoxy)propyl]piperidine] |
| 149 to 153 °C | CN(C)S(=O)(=O)c1ccc(OCCCN2CCCCC2)cc1 (as salt: oxalate) [Example 110, 1-[3-(4-N,N-dimethylsulfonamidophenoxy)propyl]piperidine] |
| 131 to 134 °C | CC(C)c1ccc(OCCCN2CCCCC2)cc1 (as salt: oxalate) [Example 111] |
| 133 to 136 °C | CCC(C)c1ccc(OCCCN2CCCCC2)cc1 (stereo not shown) (as salt: oxalate) [Example 112, 1-[3-(4-sec-butylphenoxy)propyl]pipenidine] |
| 121 to 124 °C | CCCc1ccc(OCCCN2CCCCC2)cc1 (as salt: oxalate) [Example 113, 1-[3-(4-propylphenoxy)propyl]piperidine] |
| 148 to 151 °C | CCc1ccc(OCCCN2CCCCC2)cc1 (as salt: oxalate) [Example 114, 1-[3-(4-ethylphenoxy)propyl]piperidine] |
| 158 to 159 °C | CC[C@@H]1CC[C@H](C)N(CCCOc2ccc(C#N)cc2)C1 (relative stereo) (as salt: oxalate) [Example 91, 1-[3-(4-cyanophenoxy)propyl]-cis-2-methyl-5-ethylpiperidine] |
| 163 to 165 °C | C[C@H]1C[C@H](C)CN(CCCOc2ccc(C#N)cc2)C1 (relative stereo) (as salt: oxalate) [Example 100, 1-[3-(4-cyanophenoxy)propyl]-trans-3,5-dimethylpiperidine] |
| 136 to 138 °C | C[C@H]1C[C@H](C)CN(CCCOc2ccc(C(=O)C3CC3)cc2)C1 (relative stereo) (as salt: oxalate) [Example 101, 1-[3-(4-cyclopropanecarbonylphenoxy)propyl]-trans-3,5 dimethylpiperidine] |
| 154 to 155 °C | C[C@H]1C[C@H](C)CN(CCCCCOc2ccccc2)C1 (stereo in doubt) (as salt: oxalate) [Example 12, 1-(5-phenoxypentyl)-3,5-trans-dimethyl-piperidine] |
| 171 to 172 °C | CC(=O)c1ccc(OCCCN2C[C@@H](C)C[C@H](C)C2)cc1 (stereo in doubt) (as salt: oxalate) [Example 67, 1-[3-(4-acetylphenoxy)-propyl]-3,5-trans-dimethyl-piperidine] |
| 140 to 141 °C | CC1CCCN(CCCCCOc2ccccc2)C1 (stereo not shown) [Example 10, 1-(5-phenoxypentyl)-3-methyl-piperidine] |
